Laboratory results: ChEMBL document CHEMBL4806963, “Antagonistic peptides for frizzled-1 and frizzled-2” (2013)
Calls of active or inactive are those of the source. The rule behind the calls is not given here. Where a SMILES comes first, the peptide text is derived from it.

Assays:
[1] = target: Frizzled-1 (Homo sapiens) (UniProt Q9UP38); assay: Antagonist activity at frizzled-1 (unknown origin) expressed in rat C-FIT cells assessed as inhibition of Wnt3a-stimulated cell differentiation changes by measuring alpha-smooth muscle actin gene expression at 10 nM by quantitative RT-PCR analysis; format: functional, cell-based; details: filed as antagonist
Chain of Frizzled-1 (Homo sapiens) (Q9UP38 70-647 limits assumed): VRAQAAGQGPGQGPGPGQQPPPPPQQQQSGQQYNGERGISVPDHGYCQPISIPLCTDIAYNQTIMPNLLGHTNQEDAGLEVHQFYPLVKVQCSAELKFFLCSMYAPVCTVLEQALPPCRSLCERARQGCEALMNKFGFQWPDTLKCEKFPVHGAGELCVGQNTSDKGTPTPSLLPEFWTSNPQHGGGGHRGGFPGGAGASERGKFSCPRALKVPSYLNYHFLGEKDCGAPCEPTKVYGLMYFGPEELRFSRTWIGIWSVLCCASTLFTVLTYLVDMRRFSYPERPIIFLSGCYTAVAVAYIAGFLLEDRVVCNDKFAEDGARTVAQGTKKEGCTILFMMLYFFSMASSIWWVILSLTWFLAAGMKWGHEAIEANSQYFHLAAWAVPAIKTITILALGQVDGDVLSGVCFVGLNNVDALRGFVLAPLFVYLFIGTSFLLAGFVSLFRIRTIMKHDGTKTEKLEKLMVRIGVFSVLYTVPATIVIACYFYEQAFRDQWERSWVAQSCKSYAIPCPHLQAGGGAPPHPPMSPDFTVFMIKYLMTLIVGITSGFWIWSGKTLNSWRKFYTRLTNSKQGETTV

[2] = target: Frizzled-2 (Homo sapiens) (UniProt Q14332); assay: Antagonist activity at Wnt3a-stimulated frizzled-2 (unknown origin) expressed in human HEK293superTOP flash cells incubated for 24 hrs by luciferase reporter gene assay; format: functional, cell-based; details: HEK293, filed as antagonist
Chain of Frizzled-2 (Homo sapiens) (Q14332 24-565 limits assumed): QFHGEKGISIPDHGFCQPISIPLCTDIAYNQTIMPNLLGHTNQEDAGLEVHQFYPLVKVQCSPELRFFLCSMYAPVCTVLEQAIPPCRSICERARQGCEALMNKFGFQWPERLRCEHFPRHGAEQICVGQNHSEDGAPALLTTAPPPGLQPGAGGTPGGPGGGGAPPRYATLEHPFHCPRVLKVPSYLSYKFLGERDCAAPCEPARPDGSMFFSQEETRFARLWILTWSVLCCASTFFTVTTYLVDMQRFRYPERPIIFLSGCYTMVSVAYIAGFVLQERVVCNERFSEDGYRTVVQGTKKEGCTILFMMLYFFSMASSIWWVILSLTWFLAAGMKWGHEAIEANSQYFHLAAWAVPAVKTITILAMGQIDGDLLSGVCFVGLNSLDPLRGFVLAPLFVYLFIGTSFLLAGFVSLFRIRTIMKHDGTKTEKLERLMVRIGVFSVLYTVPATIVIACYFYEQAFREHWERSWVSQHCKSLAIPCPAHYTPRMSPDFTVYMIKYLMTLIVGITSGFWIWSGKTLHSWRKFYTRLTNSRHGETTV

[3] = target: Frizzled-1 (Homo sapiens) (UniProt Q9UP38); assay: Antagonist activity at Wnt3a-stimulaed human frizzled-1 expressed in human HEK293superTOP flash cells incubated for 24 hrs by luciferase reporter gene assay; format: functional, cell-based; details: HEK293, filed as antagonist
Mus musculus [4] = assay: Cardioprotective activity against myocardial infarction Swiss mouse model assessed as reduction in infarction expansion in heart at 6 ug/kg/day, sc via osmotic pumps for 5 weeks by macroscopic analysis; format: functional, organism-based; details: dose 6.0 µg/kg/day
Mus musculus [5] = assay: Cardioprotective activity against myocardial infarction Swiss mouse model assessed as increase in alpha-SMA gene expression in heart at 6 ug/kg/day, sc via osmotic pumps for 5 weeks by qPCR analysis; format: functional, organism-based; details: dose 6.0 µg/kg/day
[6] = target: Frizzled-1 (Homo sapiens) (UniProt Q9UP38); assay: Antagonist activity at frizzled-1 (unknown origin) expressed in rat C-FIT cells assessed as inhibition of Wnt3a-stimulated blockade of migration at 10 nM incubated for 48 hrs and measured for 24 hrs following the scratch by scratch wound healing assay; format: functional, cell-based; details: filed as antagonist, time 72.0 hrs
[7] = target: Frizzled-1 (Homo sapiens) (UniProt Q9UP38); assay: Antagonist activity at frizzled-1 (unknown origin) expressed in rat C-FIT cells assessed as inhibition of Wnt5a-stimulated cell differentiation changes by measuring alpha-smooth muscle actin gene expression at 10 nM by quantitative RT-PCR analysis; format: functional, cell-based; details: filed as antagonist
[8] = target: Frizzled-1 (Rattus norvegicus) (UniProt Q08463); assay: Antagonist activity at Wnt3a-stimulated rat frizzled-1 expressed in African green monkey COS7 cells incubated for 24 hrs by luciferase reporter gene assay relative to control; format: cell-based; details: filed as antagonist, concentration not given here
Chain of Frizzled-1 (Rattus norvegicus) (Q08463 whole entry): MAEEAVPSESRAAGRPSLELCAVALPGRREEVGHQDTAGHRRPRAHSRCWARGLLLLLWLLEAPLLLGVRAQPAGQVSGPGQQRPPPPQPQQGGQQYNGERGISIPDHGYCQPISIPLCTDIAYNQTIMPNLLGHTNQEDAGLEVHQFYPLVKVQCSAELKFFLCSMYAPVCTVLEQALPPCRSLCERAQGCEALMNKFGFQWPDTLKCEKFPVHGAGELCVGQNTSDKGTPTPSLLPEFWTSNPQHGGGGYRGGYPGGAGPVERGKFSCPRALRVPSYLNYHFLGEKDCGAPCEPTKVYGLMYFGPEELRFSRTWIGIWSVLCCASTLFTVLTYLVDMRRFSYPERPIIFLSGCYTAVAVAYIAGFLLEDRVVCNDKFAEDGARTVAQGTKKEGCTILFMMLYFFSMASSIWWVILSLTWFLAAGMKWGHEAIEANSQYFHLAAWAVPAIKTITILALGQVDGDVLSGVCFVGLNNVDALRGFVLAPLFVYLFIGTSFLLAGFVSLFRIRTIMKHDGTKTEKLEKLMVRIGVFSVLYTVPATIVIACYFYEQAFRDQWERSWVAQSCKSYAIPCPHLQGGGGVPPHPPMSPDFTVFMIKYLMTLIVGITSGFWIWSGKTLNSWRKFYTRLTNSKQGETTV

[9] = target: Frizzled-2 (Homo sapiens) (UniProt Q14332); assay: Antagonist activity at Wnt3a-stimulaed human frizzled-2 expressed in human HEK293superTOP flash cells incubated for 24 hrs by luciferase reporter gene assay; format: functional, cell-based; details: HEK293, filed as antagonist
[10] = target: Frizzled-2 (Homo sapiens) (UniProt Q14332); assay: Antagonist activity at frizzled-2 (unknown origin) expressed in human HEK293superTOP flash cells incubated for 24 hrs by luciferase reporter gene assay; format: functional, cell-based; details: HEK293
Rattus norvegicus = organism: Rattus norvegicus; assay: Selectivity index, ratio of IC50 for Wnt3a-stimulated rat frizzled-1 expressed in human HEK293superTOPFlash cells to IC50 for Wnt3a-stimulated rat frizzled-2 expressed in human HEK293superTOPFlash cells; format: cell-based
[11] = target: Frizzled-5 (Homo sapiens) (UniProt Q13467); assay: Antagonist activity at Wnt3a-stimulaed human frizzled-5 expressed in human HEK293superTOP flash cells at 10 nM incubated for 24 hrs by luciferase reporter gene assay; format: functional, cell-based; details: HEK293
Chain of Frizzled-5 (Homo sapiens) (Q13467 whole entry): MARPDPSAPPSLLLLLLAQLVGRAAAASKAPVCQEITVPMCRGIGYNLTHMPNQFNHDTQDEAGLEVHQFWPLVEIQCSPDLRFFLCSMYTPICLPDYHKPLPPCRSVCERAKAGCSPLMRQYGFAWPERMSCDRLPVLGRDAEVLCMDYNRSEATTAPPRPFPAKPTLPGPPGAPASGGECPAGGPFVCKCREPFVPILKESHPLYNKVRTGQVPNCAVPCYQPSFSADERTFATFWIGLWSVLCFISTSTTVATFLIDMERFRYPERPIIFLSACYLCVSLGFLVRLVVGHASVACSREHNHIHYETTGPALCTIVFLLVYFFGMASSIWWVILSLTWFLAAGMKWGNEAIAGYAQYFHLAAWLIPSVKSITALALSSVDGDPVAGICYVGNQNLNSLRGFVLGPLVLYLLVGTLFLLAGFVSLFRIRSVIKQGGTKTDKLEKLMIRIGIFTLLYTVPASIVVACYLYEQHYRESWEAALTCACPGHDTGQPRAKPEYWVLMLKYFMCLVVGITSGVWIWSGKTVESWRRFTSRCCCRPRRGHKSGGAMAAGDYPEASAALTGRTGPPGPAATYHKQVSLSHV

Mus musculus [12] = assay: Cardioprotective activity against myocardial infarction Swiss mouse model assessed as reduction in wet lung weight at 6 ug/kg/day, sc via osmotic pumps for 5 weeks; format: functional, organism-based; details: dose 6.0 µg/kg/day
Mus musculus [13] = assay: Cardioprotective activity against myocardial infarction Swiss mouse model assessed as reduction in infarct area in heart at 6 ug/kg/day, sc via osmotic pumps for 2 to 5 weeks by immunohistochemical staining analysis; format: functional, organism-based; details: dose 6.0 µg/kg/day, time 2-5 weeks
Mus musculus [14] = assay: Cardioprotective activity against myocardial infarction Swiss mouse model assessed as ventricular dilation at 6 ug/kg/day, sc via osmotic pumps for 5 weeks by macroscopic analysis; format: functional, organism-based; details: dose 6.0 µg/kg/day
[15] = target: Frizzled-1 (Rattus norvegicus) (UniProt Q08463); assay: Agonist activity at rat frizzled-1 expressed in African green monkey COS7 cells by luciferase reporter gene assay; format: cell-based
[16] = target: T1, Frizzled-4 (Homo sapiens) (UniProt Q9ULV1); assay: Antagonist activity at Wnt3a-stimulaed frizzled-4 (unknown origin) expressed in human HEK293superTOP flash cells incubated for 24 hrs by luciferase reporter gene assay; format: functional, cell-based; details: HEK293
T1 sequence (whole entry): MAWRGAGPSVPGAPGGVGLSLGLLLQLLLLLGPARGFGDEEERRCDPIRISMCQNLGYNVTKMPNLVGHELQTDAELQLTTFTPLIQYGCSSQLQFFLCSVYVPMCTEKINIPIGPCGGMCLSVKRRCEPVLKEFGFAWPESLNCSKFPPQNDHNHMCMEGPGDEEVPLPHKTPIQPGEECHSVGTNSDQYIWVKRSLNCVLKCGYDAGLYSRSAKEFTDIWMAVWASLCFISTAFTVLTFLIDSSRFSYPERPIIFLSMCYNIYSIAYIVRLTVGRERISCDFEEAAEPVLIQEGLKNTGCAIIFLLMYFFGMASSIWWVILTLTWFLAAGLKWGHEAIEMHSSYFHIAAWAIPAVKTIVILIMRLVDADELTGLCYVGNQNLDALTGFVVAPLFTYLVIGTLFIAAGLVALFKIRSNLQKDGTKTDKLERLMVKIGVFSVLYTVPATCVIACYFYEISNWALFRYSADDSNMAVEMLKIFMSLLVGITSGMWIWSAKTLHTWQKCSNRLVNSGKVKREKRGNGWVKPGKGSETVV

[17] = target: T1, Frizzled-4 (Homo sapiens); assay: Antagonist activity at Wnt3a-stimulaed human frizzled-4 expressed in human HEK293superTOP flash cells at 10 nM incubated for 24 hrs by luciferase reporter gene assay; format: functional, cell-based; details: HEK293
[18] = target: Frizzled-1 (Rattus norvegicus) (UniProt Q08463); assay: Agonist activity at rat frizzled-1 expressed in CHO cells by luciferase reporter gene assay; format: cell-based
Mus musculus [19] = assay: Cardioprotective activity against myocardial infarction Swiss mouse model assessed as reduction in collagen level in infarct area at 6 ug/kg/day, sc via osmotic pumps for 5 weeks by immunohistochemical staining analysis; format: functional, organism-based; details: dose 6.0 µg/kg/day
[20] = target: Frizzled-1 (Rattus norvegicus) (UniProt Q08463); assay: Antagonist activity at rat frizzled-1 expressed in rat C-FIT cells assessed as inhibition of Wnt3a-stimulated blockade of migration at 10 nM incubated for 48 hrs and measured for 24 hrs following the scratch by scratch wound healing assay; format: cell-based; details: filed as antagonist, time 72.0 hrs
[21] = target: Frizzled-1 (Rattus norvegicus) (UniProt Q08463); assay: Antagonist activity at Wnt3a-stimulated rat frizzled-1 expressed in CHO cells incubated for 24 hrs by luciferase reporter gene assay relative to control; format: cell-based; details: filed as antagonist, concentration not given here
[22] = target: Frizzled-1 (Rattus norvegicus) (UniProt Q08463); assay: Agonist activity at rat frizzled-1 expressed in human HEK293superTOP flash cells by luciferase reporter gene assay; format: cell-based; details: HEK293
[23] = target: Frizzled-2 (Homo sapiens) (UniProt Q14332); assay: Antagonist activity at Wnt3a-stimulaed frizzled-2 (unknown origin) expressed in human HEK293superTOP flash cells at 1 nM incubated for 24 hrs by luciferase reporter gene assay (reference value: 0%); format: functional, cell-based; details: HEK293, filed as antagonist
[24] = target: Frizzled-2 (Rattus norvegicus) (UniProt Q08464); assay: Agonist activity at rat frizzled-2 expressed in CHO cells by luciferase reporter gene assay; format: cell-based
Chain of Frizzled-2 (Rattus norvegicus) (Q08464 29-570 limits assumed): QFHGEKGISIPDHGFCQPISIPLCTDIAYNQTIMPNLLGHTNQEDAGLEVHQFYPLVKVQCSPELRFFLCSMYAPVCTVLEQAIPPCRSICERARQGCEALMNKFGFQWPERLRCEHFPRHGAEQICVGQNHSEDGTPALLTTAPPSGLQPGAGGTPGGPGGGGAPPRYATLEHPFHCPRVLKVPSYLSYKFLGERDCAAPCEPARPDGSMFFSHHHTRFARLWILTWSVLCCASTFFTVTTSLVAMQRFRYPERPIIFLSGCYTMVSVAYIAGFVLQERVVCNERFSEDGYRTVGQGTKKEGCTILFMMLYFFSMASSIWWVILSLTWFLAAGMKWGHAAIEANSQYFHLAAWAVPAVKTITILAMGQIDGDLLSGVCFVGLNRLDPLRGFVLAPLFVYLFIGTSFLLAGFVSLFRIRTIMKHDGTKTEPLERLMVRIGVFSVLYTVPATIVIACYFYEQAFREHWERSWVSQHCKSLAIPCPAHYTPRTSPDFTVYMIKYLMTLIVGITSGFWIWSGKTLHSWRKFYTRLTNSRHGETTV

[25] = target: Frizzled-1 (Mus musculus) (UniProt O70421); assay: Antagonist activity at Wnt3a-stimulaed mouse frizzled-1 expressed in human HEK293superTOP flash cells incubated for 24 hrs by luciferase reporter gene assay; format: cell-based; details: HEK293, filed as antagonist
Chain of Frizzled-1 (Mus musculus) (O70421 whole entry, looked up): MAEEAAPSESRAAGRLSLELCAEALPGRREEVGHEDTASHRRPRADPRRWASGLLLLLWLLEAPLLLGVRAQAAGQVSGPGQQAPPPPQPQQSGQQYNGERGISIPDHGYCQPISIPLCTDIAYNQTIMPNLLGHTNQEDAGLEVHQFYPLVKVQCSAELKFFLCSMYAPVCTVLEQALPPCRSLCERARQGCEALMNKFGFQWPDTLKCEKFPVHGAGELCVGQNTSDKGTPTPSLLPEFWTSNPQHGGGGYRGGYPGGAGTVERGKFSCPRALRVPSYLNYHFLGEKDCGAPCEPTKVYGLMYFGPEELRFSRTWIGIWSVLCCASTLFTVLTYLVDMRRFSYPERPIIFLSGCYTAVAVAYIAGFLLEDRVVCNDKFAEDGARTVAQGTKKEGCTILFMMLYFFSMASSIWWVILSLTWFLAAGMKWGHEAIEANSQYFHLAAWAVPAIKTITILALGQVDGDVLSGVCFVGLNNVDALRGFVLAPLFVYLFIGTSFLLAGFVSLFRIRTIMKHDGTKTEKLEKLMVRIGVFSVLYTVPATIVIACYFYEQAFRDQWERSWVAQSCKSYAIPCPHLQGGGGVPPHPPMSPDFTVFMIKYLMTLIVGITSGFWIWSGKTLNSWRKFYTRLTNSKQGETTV

[26] = target: Frizzled-2 (Homo sapiens) (UniProt Q14332); assay: Antagonist activity at frizzled-2 (unknown origin) expressed in rat C-FIT cells assessed as inhibition of Wnt3a-stimulated cell differentiation changes by measuring alpha-smooth muscle actin gene expression at 10 nM by quantitative RT-PCR analysis; format: functional, cell-based; details: filed as antagonist
Mus musculus [27] = assay: Cardioprotective activity against myocardial infarction Swiss mouse model assessed as increase in alpha-SMA protein expression in heart at 6 ug/kg/day, sc via osmotic pumps for 5 weeks by western blot analysis; format: functional, organism-based; details: dose 6.0 µg/kg/day

In the case of CSCC[C@H](NC(=O)CNC(=O)[C@H](CCC(=O)O)NC(=O)[C@H](CO)NC(=O)[C@@H](NC(=O)[C@H](CCCCN)NC(=O)[C@H](CC(N)=O)NC(=O)[C@H](CS)NC(C)=O)[C@@H](C)O)C(=O)N[C@@H](CC(=O)O)C(=O)NCC(=O)N[C@@H](CS)C(=O)N[C@@H](CCC(=O)O)C(=O)N[C@@H](CC(C)C)C(N)=O (Ac-CNKTSEGMDGCEL-NH2), the inhibition [1] is reported as 100%, the inhibition [2] is reported as “Dose-Dependent Effect” and the inhibition [3] is reported as “Active”. For the same molecule, the Activity (Mus musculus [4]) was “Active”, the Activity (Mus musculus [5]) was “Active” and the inhibition [6] was 100%. The inhibition [7] was 100%, the inhibition [8] was 100% and the inhibition [9] was “Active”. For the same molecule, the inhibition [10] was “inactive”, the Ratio IC50 (Rattus norvegicus) was 100 and the inhibition [11] was “inactive”. The Activity (Mus musculus [12]) was “Active”, the Activity (Mus musculus [13]) was “Active” and the Activity (Mus musculus [14]) was “Active”. For the same molecule, the Activity [15] was “inactive”, the inhibition [16] was “inactive” and the inhibition [17] was “inactive”. For the same molecule, the Activity [18] was “inactive”, the Activity (Mus musculus [19]) was “Active” and the inhibition [20] was 100%. For the same molecule, the inhibition [21] was 100%, the Activity [22] was “inactive” and the inhibition [23] was 61.2%. The Activity [24] was “inactive”, the inhibition [25] was “Active” and the inhibition [26] was 100%. The Activity (Mus musculus [27]) was “Active”.
